# Measurements: patent publication US20060281736A1, “Product comprising at least one phosphatase cdc25 inhibitor combined with at least one other anticancer agent” (priority 2003, published 2006)
# Counter-ions that a name gives are not always drawn.
# Tested on: Mia-PaCa2 (human pancreas cancer cells)
# Assay: Antiproliferative activity on Mia-Paca2 cells (WST1)
# Assay type: cell-based
# Conditions: MIA PaCa-2, 96 hours treatment, read-out: IC50 on the cell proliferation of Mia-Paca2 lines
# Procedure: ii) Characterization of the Antiproliferative Activity:
# By way of example, the effect of a treatment on two human cell lines Mia-Paca2 and DU145 with the compounds of the examples described previously will be studied. The cell lines DU145 (human prostate cancer cells) and Mia-PaCa2 (human pancreas cancer cells) were acquired from the American Tissue Culture Collection (Rockville, Md., USA). The cells placed in 80 μl of Dulbecco's Modified Eagle's medium (Gibco-Brl, Cergy-Pontoise, France) completed with 10% foetal calf serum inactivated by heating (Gibco-Brl, Cergy-Pontoise, France), 50,000 units/l of penicillin and 50 mg/l of streptomycin (Gibco-Brl, Cergy-Pontoise, France), and 2 mM of glutamine (Gibco-Brl, Cergy-Pontoise, France) were seeded on a 96-well plate on day 0. The cells were treated on day 1 for 96 hours with increasing concentrations of each of the compounds to be tested up to 10 μM. At the end of this period, quantification of cell proliferation is evaluated by a colorimetric test based on the cleavage of the tetrazolium salt WST1 by the mitochondrial dehydrogenases in viable cells leading to the formation of formazan (Boehringer Mannheim, Meylan, France). These tests are carried out in duplicate with 8 determinations per concentration tested. For each compound to be tested, the values included in the linear part of the sigmoid were retained for a linear regression analysis and used to estimate the inhibitory concentration IC50. The products are solubilized in dimethylsulphoxide (DMSO) at 10^−2 M and finally used in culture with 0.1% DMSO.
row,Compound,IC50 [µM]
1,"Cc1nc2c(s1)C(=O)C=C(NCCC1CCCN1C)C2=O (stereo not drawn) [Example 24, 2-methyl-5-{[2-(1-methylpyrrolidin-2-yl)ethyl]amino}-1,3-benzothiazole-4,7-dione]",≤ 10
2,"Cc1nc2c(s1)C(=O)C=C(NCCCN1CCCCC1C)C2=O (stereo not drawn) [Example 25, 2-methyl-5-{[3-(2-methylpiperidin-1-yl)propyl]amino)-1,3-benzothiazole-4,7-dione]",≤ 10
3,"Cc1nc2c(s1)C(=O)C=C(NCCCCN(C)C)C2=O [Example 26, 5-{[4-(dimethylamino)butyl]amino}-2-methyl-1,3-benzothiazole-4,7-dione]",≤ 10
4,"Cc1nc2c(s1)C(=O)C=C(NCCCCCN(C)C)C2=O [Example 27, 5-{[5-(dimethylamino)pentyl]amino}-2-methyl-1,3-benzothiazole-4,7-dione]",≤ 10
5,"Cc1nc2c(s1)C(=O)C=C(NC1CCc3ccccc31)C2=O (stereo not drawn) [Example 28, 5-(2,3-dihydro-1H-inden-1-ylamino)-2-methyl-1,3-benzothiazole-4,7-dione]",≤ 10
6,"Cc1nc2c(s1)C(=O)C=C(N(CCN(C)C)Cc1ccccc1)C2=O [Example 29, 5-{benzyl[2-(dimethylamino)ethyl]amino}-2-methyl-1,3-benzothiazole-4,7-dione]",≤ 10
7,"Cc1nc2c(s1)C(=O)C=C(NCCCN(C)C(=O)OC(C)(C)C)C2=O [Example 30, tert-butyl methyl{3-[(2-methyl-4,7-dioxo-4,7-dihydro-1,3-benzothiazol-5-yl)amino]propyl}carbamate]",≤ 10
8,"Cc1nc2c(s1)C(=O)C=C(NCCCNC(=O)OC(C)(C)C)C2=O [Example 31, tert-butyl 3-[(2-methyl-4,7-dioxo-4,7-dihydro-1,3-benzothiazol-5-yl)amino]propylcarbamate]",≤ 10
9,"CNCCCNC1=CC(=O)c2sc(C)nc2C1=O [Example 32, 2-methyl-5-{[3-(methylamino)propyl]amino}-1,3-benzothiazole-4,7-dione hydrochloride]",≤ 10
10,"Cc1nc2c(s1)C(=O)C(Cl)=C(NCCN(C)C)C2=O [Example 34, 6-chloro-5-{[2-(dimethylamino)ethyl]amino}-2-methyl-1,3-benzothiazole-4,7-dione]",≤ 10
11,"CCCCSC1=C(NCCN(C)C)C(=O)c2nc(C)sc2C1=O [Example 36, 6-(butylthio)-5-{[2-(dimethylamino)ethyl]amino}-2-methyl-1,3-benzothiazole-4,7-dione]",≤ 10
12,"CN(C)CCNC1=CC(=O)c2sc(CN3CCOCC3)nc2C1=O [Example 37, 5-{[2-(dimethylamino)ethyl]amino}-2-(morpholin-4-ylmethyl)-1,3-benzothiazole-4,7-dione]",≤ 10
13,"CN(C)CCNC1=CC(=O)c2sc(CN3CCN(c4ccccc4)CC3)nc2C1=O [Example 38, 5-{1[2-(dimethylamino)ethyl]amino}-2-[(4-phenylpiperazin-1-yl)methyl]-1,3-benzothiazole-4,7-dione]",≤ 10
14,"CN(C)CCNC1=CC(=O)c2sc(CN3CCCCC3)nc2C1=O [Example 39, 5-{[2-(dimethylamino)ethyl]amino}-2-(piperidin-1-ylmethyl)-1,3-benzothiazole-4,7-dione]",≤ 10

# Results, then the compound that gave them:
row,IC50 [µM],Compound
1,≤ 10,"Cc1nc2c(s1)C(=O)C=C(NCCN1CCOCC1)C2=O [Example 1, 2-methyl-5-{[2-(4-morpholinyl)ethyl]amino}-1,3-benzothiazole-4,7-dione]"
2,≤ 10,"Cc1nc2c(s1)C(=O)C=C(NCCN(C)C)C2=O [Example 2, 5-{[2-(dimethylamino)ethyl]amino}-2-methyl-1,3-benzothiazole-4,7-dione hydrochloride]"
3,≤ 10,"Cc1nc2c(s1)C(=O)C=C(NCCCCCCN(C)C)C2=O [Example 3, 5-{[6-(dimethylamino)hexyl]amino}-2-methyl-1,3-benzothiazole-4,7-dione]"
4,≤ 10,"Cc1nc2c(s1)C(=O)C=C(NCC(C)(C)CN(C)C)C2=O [Example 4, 5-{[3-(dimethylamino)-2,2-dimethylpropyl]amino}-2-methyl-1,3-benzothiazole-4,7-dione]"
5,≤ 10,"Cc1nc2c(s1)C(=O)C=C(NCCCN1CCN(C)CC1)C2=O [Example 5, 2-methyl-5-{[3-(4-methyl-1-piperazinyl)propyl]amino}-1,3-benzothiazole-4,7-dione]"
6,≤ 10,"CCCCCC(CC)NC1=CC(=O)c2sc(C)nc2C1=O (stereo not drawn) [Example 6, 5-[(1-ethylhexyl)amino]-2-methyl-1,3-benzothiazole-4,7-dione]"
7,≤ 10,"Cc1nc2c(s1)C(=O)C=C(NCC13CC4CC(CC(C4)C1)C3)C2=O [Example 7, 5-[(1-adamantylmethyl)amino]-2-methyl-1,3-benzothiazole-4,7-dione]"
8,≤ 10,"Cc1nc2c(s1)C(=O)C=C(NCc1cccs1)C2=O [Example 8, 2-methyl-5-[(2-thienylmethyl)amino]-1,3-benzothiazole-4,7-dione]"
9,≤ 10,"Cc1nc2c(s1)C(=O)C=C(NCc1cccc(Cl)c1)C2=O [Example 9, 5-[(3-chlorobenzyl)amino]-2-methyl-1,3-benzothiazole-4,7-dione]"
10,≤ 10,"Cc1nc2c(s1)C(=O)C=C(N1CCN(Cc3ccccc3)CC1)C2=O [Example 14, 5-(4-benzyl-1-piperazinyl)-2-methyl-1,3-benzothiazole-4,7-dione]"
11,≤ 10,"COCCNC1=CC(=O)c2sc(C)nc2C1=O [Example 18, 5-[(2-methoxyethyl)amino]-2-methyl-1,3-benzothiazole-4,7-dione]"
12,≤ 10,"Cc1nc2c(s1)C(=O)C=C(NCCN1CCCC1)C2=O [Example 19, 2-methyl-5-[(2-pyrrolidin-1-ylethyl)amino]-1,3-benzothiazole-4,7-dione]"
13,≤ 10,"Cc1nc2c(s1)C(=O)C=C(NCCN1CCCCC1)C2=O [Example 20, 2-methyl-5-[(2-piperidin-1-ylethyl)amino]-1,3-benzothiazole-4,7-dione]"
14,≤ 10,"Cc1nc2c(s1)C(=O)C=C(NCCN(C(C)C)C(C)C)C2=O [Example 21, 5-{[2-(diisopropylamino)ethyl]amino}-2-methyl-1,3-benzothiazole-4,7-dione]"
15,≤ 10,"Cc1nc2c(s1)C(=O)C=C(NC1CCN(Cc3ccccc3)C1)C2=O (stereo not drawn) [Example 22, 5-[(1-benzylpyrrolidin-3-yl)amino]-2-methyl-1,3-benzothiazole-4,7-dione]"
16,≤ 10,"Cc1nc2c(s1)C(=O)C=C(NCCCN(C)C)C2=O [Example 23, 5-{[3-(dimethylamino)propyl]amino}-2-methyl-1,3-benzothiazole-4,7-dione]"

# Tested on: HT-29 cell line (human colon cancer cells)
# Assay: Test of cell proliferation of the HT-29 cells (WST1), products individually or in combination
# Assay type: cell-based
# Conditions: Combination 2: Compound B2 (10^−7 M) individually; 120 hours
# Procedure: A) Test of Cell Proliferation of the HT-29 Cells
# The protocol for the test used to obtain the results shown is described below:
# The HT-29 cell line (human colon cancer cells) were acquired from the American Tissue Culture Collection (Rockville, Md., USA).
# The HT-29 cells (2000 cells/well) are cultured in 96-well plates. On day 0, these cells are seeded in 90 μl of Dulbecco's modified Eagle medium (Gibco-Brl, Cergy-Pontoise, France) completed with 10% foetal calf serum inactived by heating (Gibco-Brl, Cergy-Pontoise, France), 50000 units/l of penicillin and 50 mg/l streptomycin (Gibco-Brl, Cergy-Pontoise, France), and 2 mM of glutamine (Gibco-Brl, Cergy-Pontoise, France).
# The cells were treated simultaneously with concentrations of two products individually or in combination on Day 1 and for 120 hours.
# At the end of the of this period (D6), quantification of cell proliferation is evaluated by a colorimetric test based on the cleavage of the tetrazolium salt WST1 by mitochondrial dehydrogenases in living cells leading to the formation of formazan (Boehringer Mannheim, Meylan, France). These tests are carried out at least in duplicate with 4 determinations for each individual product and for each combination tested. This allows determination of the number of living cells at the end of each treatment.
row,Compound,% of surviving cells [%]
1,"CO[C@@]12[C@H](COC(N)=O)C3=C(C(=O)C(C)=C(N)C3=O)N1C[C@@H]1N[C@@H]12 [Compound B2, mitomycin C]",49

# Same assay, conditions: Combination 4: Compound B4 (10^−5 M) individually; 120 hours
row,Compound,% of surviving cells [%]
1,"N.N.[Cl][Pt][Cl] [Compound B4, cisplatin]",33

# Same assay, conditions: Combination 5: Compound B5 (5 × 10^−8 M) individually; 120 hours
row,Compound,% of surviving cells [%]
1,"CN(Cc1cnc2nc(N)nc(N)c2n1)c1ccc(C(=O)N[C@@H](CCC(=O)O)C(=O)O)cc1 [Compound B5, methotrexate]",83

# Same assay, conditions: Combination 7: Compound B7 (10^−5 M) individually; 120 hours
row,Compound,% of surviving cells [%]
1,"4-(2-bromophenyl)-1-(2-(1-((4-cyano-3-methoxy)phenylmethyl)imidazo-5-yl)-1-oxoethyl)-1,2-dihydro-8-fluoroimidazo[1,2a][1,4]-benzodiazepine [Compound B7]",92

# Same assay, conditions: Combination 11: Compound B11 (5 × 10^−9 M) individually; 120 hours
row,Compound,% of surviving cells [%]
1,"CCc1c2c(nc3ccc(O)cc13)-c1cc3c(c(=O)n1C2)COC(=O)[C@]3(O)CC [Compound B11, SN-38]",98

# Same assay, conditions: Combination 24: Compound B11 (10^−8 M) individually; 120 hours
row,Compound,% of surviving cells [%]
1,"CCc1c2c(nc3ccc(O)cc13)-c1cc3c(c(=O)n1C2)COC(=O)[C@]3(O)CC [Compound B11, SN-38]",73

# Same assay, conditions: Combination 25: Compound B2 (5 × 10^−8 M) individually; 120 hours
row,Compound,% of surviving cells [%]
1,"CO[C@@]12[C@H](COC(N)=O)C3=C(C(=O)C(C)=C(N)C3=O)N1C[C@@H]1N[C@@H]12 [Compound B2, mitomycin C]",82

# Same assay, conditions: Combination 28: Compound B4 (10^−5 M) individually; 120 hours
row,Compound,% of surviving cells [%]
1,"N.N.[Cl][Pt][Cl] [Compound B4, cisplatin]",75

# Same assay, conditions: Combination 30: Compound B11 (10^−8 M) individually; 120 hours
row,Compound,% of surviving cells [%]
1,"CCc1c2c(nc3ccc(O)cc13)-c1cc3c(c(=O)n1C2)COC(=O)[C@]3(O)CC [Compound B11, SN-38]",67

# Same assay, conditions: Combination 32: Compound B2 (5 × 10^−8 M) individually; 120 hours
row,Compound,% of surviving cells [%]
1,"CO[C@@]12[C@H](COC(N)=O)C3=C(C(=O)C(C)=C(N)C3=O)N1C[C@@H]1N[C@@H]12 [Compound B2, mitomycin C]",88

# Same assay, conditions: Combination 33: Compound B2 (5 × 10^−8 M) individually; 120 hours
row,Compound,% of surviving cells [%]
1,"CO[C@@]12[C@H](COC(N)=O)C3=C(C(=O)C(C)=C(N)C3=O)N1C[C@@H]1N[C@@H]12 [Compound B2, mitomycin C]",88

# Same assay, conditions: Combination 35: Compound B4 (10^−5 M) individually; 120 hours
row,Compound,% of surviving cells [%]
1,"N.N.[Cl][Pt][Cl] [Compound B4, cisplatin]",85
